Experimental data: patent US20120178786A9, “Use of tetramic acid derivatives for controlling pests by drenching, drip application, or dip application” (priority 2006, published 2012)

System: foliar nematode Aphelenchoides fragariae
Assay: Example 16: dip treatment of lily bulbs, number of infested plants
Assay type: in vivo
Conditions: control 8
Experimental: The bulbs of 15 lily plants cv. “L.A. Glow” (growth stage 14/16) are dipped, in four replications, into an active substance solution containing the active substance I-4 (cis isomer, formulation: 240 SC) at the concentrations stated and subsequently planted into boxes 40×60 cm in size. The bulbs came from a field which was homogeneously infested with the foliar nematode Aphelenchoides fragariae. The number of infested plants is determined by examining leaves under the microscope for foliar nematodes 92 days after the dip treatment.

For `CCOC(=O)OC1=C(c2cc(C)ccc2C)C(=O)N[C@]12CC[C@@H](OC)CC2` [Example I-4], the Infested plants (comparison: foliar treatment with 150 g/ha, 15 lily plants) was 6, the Infested plants (lily bulbs dipped, a.i. 0.075 %, 15 plants, 92 days after dip treatment) was 0 and the Infested plants (lily bulbs dipped, a.i. 0.15 %, 15 plants, 92 days after dip treatment) was 0.
